Data: patent US10947285B2, “Compounds, compositions and uses thereof for improvement of bone disorders” (Amolyt Pharma, priority 2017, dated 2021)
Non-standard residues stand in square brackets, D forms with d. Residues, ends and D or L forms follow the SMILES beside them. Primed or numbered codes have the meaning given here. No end group written: not given here. *: point of attachment. PEG20′ = PEG20 chain (pegylated), attached via a cysteine; C16 diacid = O=C(O)CCCCCCCCCCCCCCC(=O)*; Arachidoyl = CCCCCCCCCCCCCCCCCCCC(=O)*; Stearoyl = CCCCCCCCCCCCCCCCCC(=O)*; Palmitoyl = CCCCCCCCCCCCCCCC(=O)*; Myristoyl = CCCCCCCCCCCCCC(=O)*

Key:
[1] = tested on: MC-3T3 E1 clone 4 (CL4) osteoblast cells; assay: in vitro osteoblast differentiation bioassay (stimulation of osteocalcin protein synthesis); format: cell-based
Protocol: Each peptide was tested in a biologic assay measuring its ability to stimulate differentiation of osteoblast cells over a 18-21 day interval (Table 8) or a 14-15 day interval (Table 9) as assessed by the stimulation of osteocalcin protein synthesis. MC-3T3 E1 clone 4 (CL4) osteoblast cells were obtained from ATCC (Manassas, Va., USA). Cells were cultured in α-MEM containing 10% fetal bovine serum (FBS; Thermo Fisher Scientific, Pittsburgh, Pa., USA). After confluency, culture medium was changed to differentiation medium (DM), which contained 10% FBS plus 50 μg/mL ascorbic acid and 4 mM β-glycerol phosphate, with or without a test peptide (1 μg/mL in Table 8 or 1 μmol/L in Table 9). Fresh DM, with or without test peptide, was applied every 72 hours. The cell monolayers were lysed in a modified radioimmunoprecipitation assay (RIPA) buffer. Total cellular protein in the lysates was determined using BCA (Thermo Fisher Scientific, Rockford, Ill., USA). Cell proteins are separated on SDS-PAGE gel and transferred on PVDF membrane for analysis. Osteocalcin detection was performed using anti-osteocalcin antibody at 1:200 dilution (Santa Cruz Biotechnology, Inc, Santa Cruz, Calif., USA) or at 1:3000 dilution (NPT Inc., Chapel Hill, N.C., USA) and visualized using enhanced chemiluminescence (Thermo Fisher Scientific, Rockford, Ill., USA).
The peptide was tested at different concentrations in a biologic assay measuring its ability to stimulate differentiation of osteoblast cells over a 18 day interval as assessed by the stimulation of osteocalcin protein synthesis. MC-3T3 E1 clone 4 (CL4) osteoblast cells were obtained from ATCC (Manassas, Va., USA). Cells were cultured in α-MEM containing 10% fetal bovine serum (FBS; Thermo Fisher Scientific, Pittsburgh, Pa., USA). After confluency, culture medium was changed to differentiation medium (DM), which contained 10% FBS plus 50 μg/mL ascorbic acid and 4 mM β-glycerol phosphate, with or without an ascending dose of the peptide from 0.1 μg/mL to 4 μg/mL. Fresh DM, with or without the peptide, was applied every 72 hours. The cell monolayers were lysed in a modified radioimmunoprecipitation assay (RIPA) buffer. Total cellular protein in the lysates was determined using BCA (Thermo Fisher Scientific, Rockford, Ill., USA). Cell proteins are separated on SDS-PAGE gel and transferred on PVDF membrane for analysis. Osteocalcin detection was performed using anti-osteocalcin antibody at 1:200 dilution (Santa Cruz Biotechnology, Inc, Santa Cruz, Calif., USA) and visualized using enhanced chemiluminescence (Thermo Fisher Scientific, Rockford, Ill., USA).
Each peptide was tested in a biologic assay measuring its ability to stimulate differentiation of osteoblast cells over a 15 day interval as assessed by the stimulation of osteocalcin protein synthesis. MC-3T3 E1 clone 4 (CL4) osteoblast cells were obtained from ATCC (Manassas, Va., USA). Cells were cultured in α-MEM containing 10% fetal bovine serum (FBS; Thermo Fisher Scientific, Pittsburgh, Pa., USA). After confluency, culture medium was changed to differentiation medium (DM), which contained 10% FBS plus 50 μg/mL ascorbic acid and 4 mM β-glycerol phosphate, with or without a test peptide (1 μg/mL). Fresh DM, with or without test peptide, was applied every 72 hours for 15 days. The cell monolayers were lysed in a modified radioimmunoprecipitation assay (RIPA) buffer. Total cellular protein in the lysates was determined using BCA (Thermo Fisher Scientific, Rockford, Ill., USA). Cell proteins are separated on SDS-PAGE gel and transferred on PVDF membrane for analysis. Osteocalcin detection was performed using anti-osteocalcin antibody at 1:200 dilution (Santa Cruz Biotechnology, Inc, Santa Cruz, Calif., USA) and visualized using enhanced chemiluminescence (Thermo Fisher Scientific, Rockford, Ill., USA). […]

[2] = Pharmacokinetic of acylated HBD-1 fragment analogs in male Sprague Dawley rats after subcutaneous injection; format: in vivo; settings: Table 24, sc, 1 μmol net peptide/kg
Protocol: The peptides were reconstituted in saline (0.9% NaCl). Three male Sprague Dawley rats (approximately 6 weeks of age) were used per group. Subcutaneous doses were administered into the right flank of each animal at the target dose level of 1 μmol net peptide/kg. Following dosing, serial whole blood samples (ca. 0.3 mL) were collected from retro-orbital sinus into K2EDTA treated containers. Following each blood sample collection, samples were placed into a cooling block at 4° C. Samples were collected prior to dosing then at 15 and 30 minutes then 1, 2, 4, 6, 8 and 24 hours post dose for subcutaneous injection. Blood samples were centrifuged at 3500×rpm for 10 minutes at 4° C. and resultant plasma aspirated off into clean fully, labelled tubes. Plasma samples were snap frozen following aspiration then stored at −80° C. The peptides were extracted with acetonitrile:water (75:25, v/v) and analyzed using developed LC-MS/MS methods as described in Example 9. The limits of detection of these methods are 0.003 nmol/mL for HBD1 (1-13) with palmitic acid at the N-terminus (C16:0), 0.0008 nmol/mL for HBD1 (3-11) with palmitic acid at the N-terminus (C16:0), 0.0070 nmol/mL for HBD1 (3-11) with stearic acid at the N-terminus (C18:0), and 0.0015 nmol/mL for HBD1 (3-11) with myristic acid at the N-terminus (C14:0), HBD1 (3-11) with arachidic acid at the N-terminus (C20:0), HBD1 (3-11) with palmitic diacid at the N-terminus (C16:0-diacid), HBD1 (3-11) with palmitic acid at the C-terminus (C16:0). All values below these limits of quantification were considered as zero.

[3] = Stability of HBD1 fragments in human plasma; format: in vitro ADME; settings: 24 and 48 hours incubation at 37° C.
Protocol: The peptides were spiked at 1 μg/mL (peptide backbone) into pre-warmed human K2EDTA plasma (at 37° C.) and incubated for up to 48 hours. Aliquots of plasma were extracted at specific time points (0, 24 and 48 hours post spike). Extraction was performed with acetonitrile:water (75:25, v/v) for HBD1 (1-13), HBD1 (1-13) with palmitic acid at the N-terminus (C16:0), HBD1 (3-11) with palmitic acid at the N-terminus (C16:0)) and HBD1 (3-11) with stearic acid at the N-terminus (C18:0) or with acetonitrile:water:formic acid (75:25:0.1, v/v/v) for HBD1 (3-11) and cyclic HBD1 (3-11). The peptides were analyzed using developed LC (C18 reverse phase column)—positive ion electrospray MS/MS methods specific to each peptide. The peak area at each time point was expressed as a percentage of the value obtained for the t=0 minutes time point.

[4] = Table 17, PEGylated fragments, 2 μg/mL, 18-21 day interval

Compound	Tlast (last time point with detectable peptide) [2]	Fold increase vs DM ± SE [1, 4]	other results
63 ([PEG20′]CKHHLGLEEPKKLR; not fully specified (some residues); printed as PEG20-C-KHHLGLEEPKKLR) [compound 63]	–	1.4 ± 0.3 fold	–
64 (KHHLGLEEPKKLR; not fully specified; MOD_RES (13)..(13) Pegylated) [compound 64]	–	2.2 ± 0.4 fold	–
65 ([PEG20′]CHHLGLEEPKK; not fully specified (some residues); printed as PEG20-C-HHLGLEEPKK) [compound 65]	–	1.4 ± 0.1 fold	–
66 (HHLGLEEPKK; not fully specified; MOD_RES (10)..(10) Pegylated) [compound 66]	–	2.2 ± 0.2 fold	–
67 ([PEG20′]CHLGLEEPKK; not fully specified (some residues); printed as PEG20-C-HLGLEEPKK) [compound 67]	–	1.9 ± 0.2 fold	–
CCCCCCCCCCCCCCCCCCCC(=O)N[C@@H](Cc1c[nH]cn1)C(=O)N[C@@H](CC(C)C)C(=O)NCC(=O)N[C@@H](CC(C)C)C(=O)N[C@@H](CCC(=O)O)C(=O)N[C@@H](CCC(=O)O)C(=O)N1CCC[C@H]1C(=O)N[C@@H](CCCCN)C(=O)N[C@@H](CCCCN)C(=O)O [compound 74] (Arachidoyl-HLGLEEPKK-OH; C-terminus assumed)	8 h	–	–
CCCCCCCCCCCCCCCC(=O)NCCCC[C@H](NC(=O)[C@H](CCCCN)NC(=O)[C@@H]1CCCN1C(=O)[C@H](CCC(=O)O)NC(=O)[C@H](CCC(=O)O)NC(=O)[C@H](CC(C)C)NC(=O)CNC(=O)[C@H](CC(C)C)NC(=O)[C@@H](N)Cc1c[nH]cn1)C(=O)O [compound 76] (H-HLGLEEPKK(Palmitoyl)-OH; N-terminus and C-terminus assumed)	8 h	–	–
CC(C)C[C@@H]1NC(=O)CNC(=O)[C@H](CC(C)C)NC(=O)[C@H](Cc2c[nH]cn2)NC(=O)[C@H](CCCCN)NC(=O)[C@H](CCCCN)NC(=O)[C@@H]2CCCN2C(=O)[C@H](CCC(=O)O)NC(=O)[C@H](CCC(=O)O)NC1=O [compound 77] (cyclo(EEPKKHLGL))	–	–	stability in human plasma (in words) [3]: plasma stability profile similar to that of the corresponding unconjugated linear peptide HBD1 (3-11)
CCCCCCCCCCCCCCCC(=O)N[C@@H](CCCCN)C(=O)N[C@@H](Cc1c[nH]cn1)C(=O)N[C@@H](Cc1c[nH]cn1)C(=O)N[C@@H](CC(C)C)C(=O)NCC(=O)N[C@@H](CC(C)C)C(=O)N[C@@H](CCC(=O)O)C(=O)N[C@@H](CCC(=O)O)C(=O)N1CCC[C@H]1C(=O)N[C@@H](CCCCN)C(=O)N[C@@H](CCCCN)C(=O)N[C@@H](CC(C)C)C(=O)N[C@@H](CCCNC(=N)N)C(=O)O [compound 78] (Palmitoyl-KHHLGLEEPKKLR-OH)	8 h	–	–

Continued, in another order:

Tlast (last time point with detectable peptide) [2]	Compound	Fold increase vs DM ± SE [1, 4]	other results
6 h	CCCCCCCCCCCCCC(=O)N[C@@H](Cc1c[nH]cn1)C(=O)N[C@@H](CC(C)C)C(=O)NCC(=O)N[C@@H](CC(C)C)C(=O)N[C@@H](CCC(=O)O)C(=O)N[C@@H](CCC(=O)O)C(=O)N1CCC[C@H]1C(=O)N[C@@H](CCCCN)C(=O)N[C@@H](CCCCN)C(=O)O [compound 71] (Myristoyl-HLGLEEPKK-OH; C-terminus assumed)	–	–
8 h	CCCCCCCCCCCCCCCC(=O)N[C@@H](Cc1c[nH]cn1)C(=O)N[C@@H](CC(C)C)C(=O)NCC(=O)N[C@@H](CC(C)C)C(=O)N[C@@H](CCC(=O)O)C(=O)N[C@@H](CCC(=O)O)C(=O)N1CCC[C@H]1C(=O)N[C@@H](CCCCN)C(=O)N[C@@H](CCCCN)C(=O)O [compound 72] (Palmitoyl-HLGLEEPKK-OH)	–	stability in human plasma (in words) [3]: plasma stability profile similar to that of the corresponding unconjugated linear peptide HBD1 (3-11)
8 h	CCCCCCCCCCCCCCCCCC(=O)N[C@@H](Cc1c[nH]cn1)C(=O)N[C@@H](CC(C)C)C(=O)NCC(=O)N[C@@H](CC(C)C)C(=O)N[C@@H](CCC(=O)O)C(=O)N[C@@H](CCC(=O)O)C(=O)N1CCC[C@H]1C(=O)N[C@@H](CCCCN)C(=O)N[C@@H](CCCCN)C(=O)O [compound 73] (Stearoyl-HLGLEEPKK-OH)	–	stability in human plasma (in words) [3]: plasma stability profile similar to that of the corresponding unconjugated linear peptide HBD1 (3-11); Fold increase vs DM ± SE ([1]; Table 19, dose 1.0 μM, 18 day interval): 3.46 ± 0.47 fold; Fold increase vs DM ± SE ([1]; Table 19, dose 2.0 μM, 18 day interval): 4.48 ± 0.07 fold; Fold increase vs DM ± SE ([1]; Table 19, dose 3.0 μM, 18 day interval): 5.66 ± 0.45 fold
8 h	CC(C)C[C@H](NC(=O)CNC(=O)[C@H](CC(C)C)NC(=O)[C@H](Cc1c[nH]cn1)NC(=O)CCCCCCCCCCCCCCC(=O)O)C(=O)N[C@@H](CCC(=O)O)C(=O)N[C@@H](CCC(=O)O)C(=O)N1CCC[C@H]1C(=O)N[C@@H](CCCCN)C(=O)N[C@@H](CCCCN)C(=O)O [compound 75] ({C16 diacid}-HLGLEEPKK-OH; C-terminus assumed)	–	–
